Values quoted from earlier work as cited in patent publication US8821904B2, “Topical composition and use thereof for the prophylaxis and the treatment of defects connected to inflammatory dermopathies” (Skinius S.R.L., priority 2010, dated 2014).

System: seborrhoeic eczema
Conditions: topically applied, after four weeks of treatment

## CC(=O)N1CCN(c2ccc(OCC3COC(Cn4ccnc4)(c4ccc(Cl)cc4Cl)O3)cc2)CC1 (stereo not shown) [ketoconazole]
  Improvement of seborrhoeic eczema, percentage of the cases: 75%
